Bridge positions count the residues as written; N and C are the ends. Square brackets hold non-standard residues; d marks the D form. Peptide text beside a SMILES is read from it. Nle = CCCC[C@H](N)C(=O)O
Tests used:
[1] = molecular target: T1, human Kv1.3 voltage-gated K+ channel (Homo sapiens, UniProt P22001); assay: cell-based; details: inhibition of thallium flux, CHO-DUKX cells with human Kv1.3; read-out: IC50
T1 construct: host or cells: CHO-DUKX

[2] = molecular target: T2, Kv1.1 (Homo sapiens, UniProt Q09470); assay: cell-based; details: for IC50: CHO cells, whole-cell patch clamp, read-out: Potency IC50 (nM) Kv1.1; for Selectivity Kv1.1/Kv1.3: ratio IC50[Kv1.1]/IC50[Kv1.3]
T2 construct: expressed in transfected cells; host or cells: Chinese Hamster Ovary (CHO)

[3] = molecular target: T3, Kv1.2 (Homo sapiens, UniProt P16389); assay: cell-based; details: CHO cells, whole-cell patch clamp; read-out: Potency IC50 (nM) Kv1.2
T3 construct: expressed in transfected cells; host or cells: Chinese Hamster Ovary (CHO)

[4] = molecular target: T4, Kv1.3 (Homo sapiens, UniProt P22001); assay: cell-based; details: CHO cells, whole-cell patch clamp; read-out: Potency IC50 (nM) Kv1.3
T4 construct: expressed in transfected cells; host or cells: Chinese Hamster Ovary (CHO)

[5] = molecular target: T5, Kv1.6 (Homo sapiens, UniProt P17658); assay: cell-based; details: for IC50: CHO cells, whole-cell patch clamp, read-out: Potency IC50 (nM) Kv1.6; for Selectivity Kv1.6/Kv1.3: ratio IC50[Kv1.6]/IC50[Kv1.3]
T5 construct: expressed in transfected cells; host or cells: Chinese Hamster Ovary (CHO)

[6] = molecular target: Rat whole blood (Rattus norvegicus, UniProt P15384)
Rat whole blood, sequence (P15384 whole entry): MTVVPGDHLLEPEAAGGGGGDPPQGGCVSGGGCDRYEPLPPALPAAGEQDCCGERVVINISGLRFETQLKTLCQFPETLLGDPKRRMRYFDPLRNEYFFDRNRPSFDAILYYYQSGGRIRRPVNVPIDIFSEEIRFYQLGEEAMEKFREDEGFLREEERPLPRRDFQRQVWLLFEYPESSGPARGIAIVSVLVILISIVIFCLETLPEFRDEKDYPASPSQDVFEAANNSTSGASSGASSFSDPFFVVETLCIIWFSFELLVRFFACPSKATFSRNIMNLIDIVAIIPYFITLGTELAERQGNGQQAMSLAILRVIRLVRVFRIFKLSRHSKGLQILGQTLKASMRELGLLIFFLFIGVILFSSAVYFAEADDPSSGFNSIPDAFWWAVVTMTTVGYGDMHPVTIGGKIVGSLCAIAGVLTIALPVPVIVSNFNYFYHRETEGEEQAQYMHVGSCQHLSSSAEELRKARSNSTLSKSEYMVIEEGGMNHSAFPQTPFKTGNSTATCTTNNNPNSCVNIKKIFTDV

T2 sequence (Q09470 whole entry): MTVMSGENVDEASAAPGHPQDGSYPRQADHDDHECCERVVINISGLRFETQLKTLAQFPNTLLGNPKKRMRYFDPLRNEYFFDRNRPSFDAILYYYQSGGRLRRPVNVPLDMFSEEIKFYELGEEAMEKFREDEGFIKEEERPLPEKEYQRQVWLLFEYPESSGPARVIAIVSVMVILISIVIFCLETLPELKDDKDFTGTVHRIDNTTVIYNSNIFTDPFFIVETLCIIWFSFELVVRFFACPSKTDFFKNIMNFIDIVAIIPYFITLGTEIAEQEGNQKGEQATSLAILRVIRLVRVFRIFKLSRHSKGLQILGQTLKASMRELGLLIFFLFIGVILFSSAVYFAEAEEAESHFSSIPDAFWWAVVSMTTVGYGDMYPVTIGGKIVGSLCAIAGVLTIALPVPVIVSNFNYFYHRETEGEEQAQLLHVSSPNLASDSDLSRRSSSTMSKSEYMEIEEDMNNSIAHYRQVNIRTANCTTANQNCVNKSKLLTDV
T3 sequence (P16389 whole entry): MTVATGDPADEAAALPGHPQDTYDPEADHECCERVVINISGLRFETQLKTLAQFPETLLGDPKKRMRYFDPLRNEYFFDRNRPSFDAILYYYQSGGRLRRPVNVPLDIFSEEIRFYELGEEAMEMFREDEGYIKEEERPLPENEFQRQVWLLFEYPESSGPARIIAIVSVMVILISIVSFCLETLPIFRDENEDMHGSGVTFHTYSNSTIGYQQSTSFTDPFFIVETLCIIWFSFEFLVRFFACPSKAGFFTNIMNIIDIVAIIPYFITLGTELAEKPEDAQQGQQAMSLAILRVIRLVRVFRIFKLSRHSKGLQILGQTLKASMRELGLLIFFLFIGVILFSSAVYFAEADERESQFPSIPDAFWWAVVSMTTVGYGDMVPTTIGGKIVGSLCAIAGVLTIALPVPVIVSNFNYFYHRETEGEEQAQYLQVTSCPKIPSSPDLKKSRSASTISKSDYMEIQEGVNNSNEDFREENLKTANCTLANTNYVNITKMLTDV
T1 sequence (P22001 whole entry): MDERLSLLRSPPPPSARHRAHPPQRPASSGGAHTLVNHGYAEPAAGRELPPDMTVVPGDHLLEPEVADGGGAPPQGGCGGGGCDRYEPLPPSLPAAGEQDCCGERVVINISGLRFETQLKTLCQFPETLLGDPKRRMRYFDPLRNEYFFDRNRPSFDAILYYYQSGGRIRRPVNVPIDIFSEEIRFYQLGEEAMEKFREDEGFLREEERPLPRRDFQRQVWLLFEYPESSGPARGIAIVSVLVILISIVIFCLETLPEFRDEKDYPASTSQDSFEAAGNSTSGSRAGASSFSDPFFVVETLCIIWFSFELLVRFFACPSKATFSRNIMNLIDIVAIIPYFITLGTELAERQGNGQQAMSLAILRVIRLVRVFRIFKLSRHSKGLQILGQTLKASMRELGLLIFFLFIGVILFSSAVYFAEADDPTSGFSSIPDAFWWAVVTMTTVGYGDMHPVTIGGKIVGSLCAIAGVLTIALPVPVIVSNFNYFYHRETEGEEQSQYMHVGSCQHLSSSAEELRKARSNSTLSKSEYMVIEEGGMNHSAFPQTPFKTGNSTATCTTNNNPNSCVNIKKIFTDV
T4 sequence (P22001 whole entry): as above
T5 sequence (P17658 whole entry): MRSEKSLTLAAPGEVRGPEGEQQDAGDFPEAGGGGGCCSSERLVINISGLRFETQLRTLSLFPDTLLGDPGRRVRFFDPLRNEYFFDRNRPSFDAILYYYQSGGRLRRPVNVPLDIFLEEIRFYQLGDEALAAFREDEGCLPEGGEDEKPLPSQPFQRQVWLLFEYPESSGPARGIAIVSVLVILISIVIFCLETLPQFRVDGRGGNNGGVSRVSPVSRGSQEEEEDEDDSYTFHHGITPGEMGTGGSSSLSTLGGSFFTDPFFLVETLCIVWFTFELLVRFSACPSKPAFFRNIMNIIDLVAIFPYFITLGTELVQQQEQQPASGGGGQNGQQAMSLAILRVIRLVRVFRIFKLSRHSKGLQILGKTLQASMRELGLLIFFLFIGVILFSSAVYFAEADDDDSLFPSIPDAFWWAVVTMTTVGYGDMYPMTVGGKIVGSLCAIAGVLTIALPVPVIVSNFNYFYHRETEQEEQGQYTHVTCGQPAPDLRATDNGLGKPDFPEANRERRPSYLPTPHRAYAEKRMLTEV

| SMILES | IC50 [1] [nM] | IC50 [2] [nM] | Selectivity Kv1.1/Kv1.3 [2] | IC50 [3] [nM] | IC50 [4] [nM] | IC50 [5] [nM] | Selectivity Kv1.6/Kv1.3 [5] | IC50 [6] [nM] |
| --- | --- | --- | --- | --- | --- | --- | --- | --- |
| CC[C@H](C)[C@@H]1NC(=O)[C@H](C)NC(=O)[C@H](CCCCN)NC(=O)[C@H](CC(C)C)NC(=O)[C@@H]2CSSC[C@@H](C(=O)N[C@@H](Cc3ccc(O)cc3)C(=O)N3CCC[C@H]3C(=O)N[C@@H](CCCNC(=N)N)C(N)=O)NC(=O)[C@H](CCCCN)NC(=O)[C@@H]3CSSC[C@H](NC(=O)[C@H](CCC(=O)O)NC(=O)[C@H](C(C)C)NC(=O)[C@H](CO)NC(=O)[C@H](C)NC(=O)[C@H](CO)NC(=O)[C@@H](NC(=O)[C@H](CCCNC(=N)N)NC(=O)[C@H](CCSC)NC(=O)[C@H](CC(=O)O)NC(=O)[C@H](CCSC)NC(=O)[C@@H](N)CC(N)=O)CSSC[C@H](NC(=O)[C@H](CCCCN)NC(=O)CNC(=O)[C@H](Cc4ccccc4)NC(=O)[C@H]([C@@H](C)CC)NC(=O)[C@H](CO)NC(=O)CNC1=O)C(=O)N[C@@H](CCSC)C(=O)N[C@@H](CC(N)=O)C(=O)N[C@@H](CCCCN)C(=O)N[C@@H](CCCCN)C(=O)N3)C(=O)N[C@@H](CC(C)C)C(=O)N[C@@H](CCC(N)=O)C(=O)N[C@@H](CCCCN)C(=O)N2 [Compound 29] (H-NMDMRCSASVECLQKCLKAIGSIFGKCMNKKCKCYPR-NH2; disulfide 6-27, 12-32, 16-34) | 0.18 | > 3000 | >7400 | 874 | 0.4 | > 3000 | >7400 | ≤ 1 |
| CC[C@H](C)[C@@H]1NC(=O)[C@H](C)NC(=O)[C@H](CCCCN)NC(=O)[C@H](CC(C)C)NC(=O)[C@@H]2CSSC[C@@H](C(=O)N[C@@H](Cc3ccc(O)cc3)C(=O)N3CCC[C@H]3C(=O)N[C@@H](CCCNC(=N)N)C(N)=O)NC(=O)[C@H](CCCCN)NC(=O)[C@@H]3CSSC[C@H](NC(=O)[C@H](CCC(=O)O)NC(=O)[C@H](C(C)C)NC(=O)[C@H](CO)NC(=O)[C@H](C)NC(=O)[C@H](CO)NC(=O)[C@@H](NC(=O)[C@H](CCCNC(=N)N)NC(=O)[C@H](CCSC)NC(=O)[C@H](CC(=O)O)NC(=O)[C@H](CCSC)NC(=O)[C@@H](N)CC(N)=O)CSSC[C@H](NC(=O)[C@H](CCCCN)NC(=O)CNC(=O)[C@H](Cc4ccccc4)NC(=O)[C@H]([C@@H](C)CC)NC(=O)[C@H](CO)NC(=O)CNC1=O)C(=O)N[C@@H](CCSC)C(=O)N[C@@H](CC(N)=O)C(=O)N[C@@H](CCCCN)C(=O)N[C@@H](CCCCN)C(=O)N3)C(=O)N[C@@H](CCCCN)C(=O)N[C@@H](CCC(=O)O)C(=O)N[C@@H](CCCCN)C(=O)N2 [Compound 31] (H-NMDMRCSASVECKEKCLKAIGSIFGKCMNKKCKCYPR-NH2; disulfide 6-27, 12-32, 16-34) | 0.075 | > 3000 | >10800 | 179 | 0.28 | > 3000 | >10800 | ≤ 1 |
| CC[C@H](C)[C@@H]1NC(=O)[C@H](C)NC(=O)[C@H](CCCCN)NC(=O)[C@H](CC(C)C)NC(=O)[C@@H]2CSSC[C@@H](C(=O)N[C@@H](Cc3ccc(O)cc3)C(=O)N3CCC[C@H]3C(=O)N[C@@H](CCCNC(=N)N)C(N)=O)NC(=O)[C@H](Cc3c[nH]cn3)NC(=O)[C@@H]3CSSC[C@H](NC(=O)[C@H](CCC(=O)O)NC(=O)[C@H](C(C)C)NC(=O)[C@H](CO)NC(=O)[C@H](C)NC(=O)[C@H](CO)NC(=O)[C@@H](NC(=O)[C@H](CCCNC(=N)N)NC(=O)[C@H](CCSC)NC(=O)[C@H](CC(=O)O)NC(=O)[C@H](CCSC)NC(=O)[C@@H](N)CC(N)=O)CSSC[C@H](NC(=O)[C@H](CCCCN)NC(=O)CNC(=O)[C@H](Cc4ccccc4)NC(=O)[C@H]([C@@H](C)CC)NC(=O)[C@H](CO)NC(=O)CNC1=O)C(=O)N[C@@H](CCSC)C(=O)N[C@@H](CC(N)=O)C(=O)N[C@@H](CCCCN)C(=O)N[C@@H](CCCCN)C(=O)N3)C(=O)N[C@@H](CCCCN)C(=O)N[C@@H](CCC(N)=O)C(=O)N[C@@H](CCCCN)C(=O)N2 [Compound 37] (H-NMDMRCSASVECKQKCLKAIGSIFGKCMNKKCHCYPR-NH2; disulfide 6-27, 12-32, 16-34) | 0.14 | > 3000 | >16100 | 338 | 0.19 | > 3000 | >16100 | ≤ 1 |
| CCCC[C@@H]1NC(=O)[C@@H]2CSSC[C@H](NC(=O)[C@H](CCCNC(=N)N)NC(=O)[C@H](CCCC)NC(=O)[C@H](CC(=O)O)NC(=O)[C@H](CCCC)NC(=O)[C@@H](N)CC(N)=O)C(=O)N[C@@H](CCCNC(=N)N)C(=O)N[C@@H](C)C(=O)N[C@@H](CO)C(=O)N[C@@H](C(C)C)C(=O)N[C@@H](CCC(=O)O)C(=O)N[C@H]3CSSC[C@H](NC(=O)[C@H](CCCCN)NC(=O)[C@H](CCCCN)NC(=O)[C@H](CC(N)=O)NC1=O)C(=O)N[C@@H](CCCCN)C(=O)N[C@H](C(=O)N[C@@H](Cc1ccc(O)cc1)C(=O)N1CCC[C@H]1C(=O)N[C@@H](CCCNC(=N)N)C(N)=O)CSSC[C@H](NC(=O)[C@H](CCCCN)NC(=O)[C@H](CCC(N)=O)NC(=O)[C@H](CCCCN)NC3=O)C(=O)N[C@@H](CC(C)C)C(=O)N[C@@H](CCCCN)C(=O)N[C@@H](C)C(=O)N[C@@H]([C@@H](C)CC)C(=O)NCC(=O)N[C@@H](CO)C(=O)N[C@@H]([C@@H](C)CC)C(=O)N[C@@H](Cc1ccccc1)C(=O)NCC(=O)N[C@@H](CCCCN)C(=O)N2 [Compound 42] (H-N[Nle]D[Nle]RCRASVECKQKCLKAIGSIFGKC[Nle]NKKCKCYPR-NH2; disulfide 6-27, 12-32, 16-34) | 0.087 | > 3000 | >18600 | 109 | 0.16 | 316 |  | ≤ 1 |
| CCCC[C@@H]1NC(=O)[C@@H]2CSSC[C@H](NC(=O)[C@H](CCCNC(=N)N)NC(=O)[C@H](CCCC)NC(=O)[C@H](CO)NC(=O)[C@H](CCCC)NC(=O)[C@@H](N)CC(N)=O)C(=O)N[C@@H](CO)C(=O)N[C@@H](C)C(=O)N[C@@H](CO)C(=O)N[C@@H](C(C)C)C(=O)N[C@@H](CCC(=O)O)C(=O)N[C@H]3CSSC[C@H](NC(=O)[C@H](CCCCN)NC(=O)[C@H](CCCCN)NC(=O)[C@H](CC(N)=O)NC1=O)C(=O)N[C@@H](CCCCN)C(=O)N[C@H](C(=O)N[C@@H](Cc1ccc(O)cc1)C(=O)N1CCC[C@H]1C(=O)N[C@@H](CCCNC(=N)N)C(N)=O)CSSC[C@H](NC(=O)[C@H](CCCCN)NC(=O)[C@H](CCC(N)=O)NC(=O)[C@H](CCCCN)NC3=O)C(=O)N[C@@H](CC(C)C)C(=O)N[C@@H](CCCCN)C(=O)N[C@@H](C)C(=O)N[C@@H]([C@@H](C)CC)C(=O)NCC(=O)N[C@@H](CO)C(=O)N[C@@H]([C@@H](C)CC)C(=O)N[C@@H](Cc1ccccc1)C(=O)NCC(=O)N[C@@H](CCCCN)C(=O)N2 [Compound 46] (H-N[Nle]S[Nle]RCSASVECKQKCLKAIGSIFGKC[Nle]NKKCKCYPR-NH2; disulfide 6-27, 12-32, 16-34) | 0.11 | > 3000 | >9400 | 302 | 0.32 | 1390 |  | ≤ 1 |
| CCCC[C@@H]1NC(=O)[C@@H]2CSSC[C@H](NC(=O)[C@H](CCCNC(=N)N)NC(=O)[C@H](CCCC)NC(=O)[C@H](CC(=O)O)NC(=O)[C@H](CCCC)NC(=O)[C@@H](N)CC(N)=O)C(=O)N[C@@H](CO)C(=O)N[C@@H](Cc3c[nH]cn3)C(=O)N[C@@H](CO)C(=O)N[C@@H](C(C)C)C(=O)N[C@@H](CCC(=O)O)C(=O)N[C@H]3CSSC[C@H](NC(=O)[C@H](CCCCN)NC(=O)[C@H](CCCCN)NC(=O)[C@H](CC(N)=O)NC1=O)C(=O)N[C@@H](CCCCN)C(=O)N[C@H](C(=O)N[C@@H](Cc1ccc(O)cc1)C(=O)N1CCC[C@H]1C(=O)N[C@@H](CCCNC(=N)N)C(N)=O)CSSC[C@H](NC(=O)[C@H](CCCCN)NC(=O)[C@H](CCC(N)=O)NC(=O)[C@H](CCCCN)NC3=O)C(=O)N[C@@H](CC(C)C)C(=O)N[C@@H](CCCCN)C(=O)N[C@@H](C)C(=O)N[C@@H]([C@@H](C)CC)C(=O)NCC(=O)N[C@@H](CO)C(=O)N[C@@H]([C@@H](C)CC)C(=O)N[C@@H](Cc1ccccc1)C(=O)NCC(=O)N[C@@H](CCCCN)C(=O)N2 [Compound 47] (H-N[Nle]D[Nle]RCSHSVECKQKCLKAIGSIFGKC[Nle]NKKCKCYPR-NH2; disulfide 6-27, 12-32, 16-34) | 0.12 | > 3000 | >5600 | 772 | 0.54 | 609 |  | ≤ 1 |
| CCCC[C@@H]1NC(=O)[C@@H]2CSSC[C@H](NC(=O)[C@H](CCCNC(=N)N)NC(=O)[C@H](CCCC)NC(=O)[C@H](CC(=O)O)NC(=O)[C@H](CCCC)NC(=O)[C@@H](N)CC(N)=O)C(=O)N[C@@H](CO)C(=O)N[C@@H](C)C(=O)N[C@@H](CO)C(=O)N[C@@H](C(C)C)C(=O)N[C@@H](CCC(=O)O)C(=O)N[C@H]3CSSC[C@H](NC(=O)[C@H](CCCCN)NC(=O)[C@H](CCCCN)NC(=O)[C@H](CC(N)=O)NC1=O)C(=O)N[C@@H](CCCCN)C(=O)N[C@H](C(=O)N[C@@H](Cc1ccc(O)cc1)C(=O)N1CCC[C@H]1C(=O)N[C@@H](CCCNC(=N)N)C(N)=O)CSSC[C@H](NC(=O)[C@H](CCCCN)NC(=O)[C@H](CCC(N)=O)NC(=O)[C@H](CCCCN)NC3=O)C(=O)N[C@@H](CCCCN)C(=O)N[C@@H](C)C(=O)N[C@@H]([C@@H](C)CC)C(=O)NCC(=O)N[C@@H](CO)C(=O)N[C@@H]([C@@H](C)CC)C(=O)N[C@@H](Cc1ccccc1)C(=O)NCC(=O)N[C@@H](CCCCN)C(=O)N2 [Compound 49] (H-N[Nle]D[Nle]RCSASVECKQKCKAIGSIFGKC[Nle]NKKCKCYPR-NH2; disulfide 6-26, 12-31, 16-33) | 0.36 | > 3000 | >2200 | 164 | 1.34 | 946 |  | ≤ 1 |

From US11780893B2, “Kv1.3 blockers” (Zealand Pharma A/S, priority 2019, dated 2023)
